Columns and labels:
mouse [1] = tested on: mouse
mouse [2] = conditions: in vivo
Text: An acetaminophen overdose mouse model for drug-induced liver injury was employed to determine the effect of liver injury on the RNA spectrum.

[3] = tested on: mouse dicer deficient (DCR −/−) fibroblast cell line; assay: Transfection of synthetic exogenous RNA into fibroblasts, effect on transcriptome (microarray, pathway enrichment of down-regulated genes); type: cell-based; conditions: 10 nM synthetic RNA, 24 hours; for effects on the cellular transcriptome (gene expression profiles): microarray; for Affected pathways: pathways enriched among down-regulated genes
Text: We transfected several synthetic, double-stranded RNA molecules selected from observed exogenous miRNA sequences and some highly abundant exogenous sequences (bacterial rRNAs) that have potential to form pre-miRNA-like secondary structures (FIG. 7) into a mouse fibroblast cell line.
The mouse dicer deficient (DCR −/−) fibroblast cell line was generated from a conditional cre and floxed Dicer allele transgenic mouse available from Jax (located on the web at jaxmice.jax.org/strain/006001.html) kindly provided by Dr. Jacques Peschon. Part of the RNase III domain encoded in the exon 23 of dicer gene was deleted following cre excision. DCR −/− cells were maintained in Dulbecco's modified Eagle's medium with high glucose. The media was supplemented with 10% FBS, 1% non-essential amino acid, 1% GlutaMAX™. The cells were routinely incubated at 37° C. in a humidified atmosphere with 5% CO2.
Lipofectamine™ RNAiMAX was purchased from Invitrogen (Life Technologies, Carlsbad, Calif.). Custom designed exogenous RNA used in transfection was obtained from Ambion (Life Technologies, Carlsbad, Calif.). DCR −/− cells were seeded at a density of 1×10^5 cells in 6-well tissue culture plates 24 h prior to transfect with 10 nM of synthetic RNAs. Cells exposed to transfection reagents only were used as control. After 24 hours in the transfection media, the cells were harvested for RNA isolation and the transfection efficiency was validated with qPCR.
Effects of exogenous RNAs on transcriptome were assessed by using the Agilent mouse 4×44K microarray (Agilent, Santa Clara, Calif.). Total RNAs were isolated with an miRNeasy® column (Qiagen, Valencia, Calif.), and both Cy3 and Cy5-labeled cRNA samples were prepared with two color labeling kit (Agilent Technologies, Santa Clara, Calif.) and then hybridized at 65° C. for 17 h. Signal intensity was calculated from digitized images captured by a scanner from Agilent (Santa Clara, Calif.), and data analysis was performed by using GeneSpring GX software (Agilent Technologies, Santa Clara, Calif.).
The expression profiles of a number of genes in the cells were affected by some of the exogenous RNA sequences. We verified the changes in levels of some of these affected genes' mRNA by QPCR (FIG. 8).

[4] = Stability of RNA in plasma after enzyme or detergent treatment, qPCR; type: in vitro ADME, human
Method: The plasma samples were treated with various conditions (indicated on the top of the figure) prior to RNA isolation. The Y-axis represents the relative concentration change compared to no treatment determined by qPCR. The data represents the average changes from 9 plasma samples. The black bars represent the changes of an endogenous miRNA, miR-16, the open bars are exogenous miRNA, miR-263 from mosquitos and the gray bars are the 16S rRNA from Pseudomonas putida.
To explore the stability of exogenous RNA in plasma, we treated the plasma with RNase A from Fermentas™ (Thermo Scientific™, Wilmington, Del.) at a concentration at 1 μg/ml, DNase I (Fermentas™, Thermo Scientific™, Wilmington, Del.) at a concentration of 1 unit/ml, protease K (Fermentas™, Thermo Scientific™, Wilmington, Del.) at a concentration of 0.05 mg/ml, 0.1% Triton™ X 100, or protease K for 20 minutes followed by additional RNase A at 1 μg/ml after heat inactivation of protease K at 70° C. for 10 minutes prior for RNA isolation.
Adding additional RNase caused less reduction compared to protease followed by RNase treatments.

| Compound | histopathology of liver tissues (mouse [1]; acetaminophen overdose) | histopathology of kidney tissues (mouse [1]; mouse, in vivo) | level of albumin transcript in plasma (mouse [2]) | level of apolipoprotein A2 (apoA2) transcript in plasma (mouse [2]) | level of transferrin transcript in plasma (mouse [2]) | number of transcripts in plasma affected (mouse [2]) | time course of albumin transcript level in plasma (mouse [2]) | time course of apoA2 transcript level in plasma (mouse [2]) | time course of transferrin transcript level in plasma (mouse [2]) | effects on the cellular transcriptome (gene expression profiles) [3] | Affected pathways [3] | level of RNA in plasma after treatment ([4]; 0.1% Triton X-100 prior to RNA isolation) | level of RNA in plasma after treatment ([4]; RNase A 1 μg/ml prior to RNA isolation) | level of RNA in plasma after treatment ([4]; protease K 0.05 mg/ml prior to RNA isolation) | level of RNA in plasma after treatment ([4]; protease K for 20 minutes followed by RNase A 1 μg/ml) |
| --- | --- | --- | --- | --- | --- | --- | --- | --- | --- | --- | --- | --- | --- | --- | --- |
| CC(=O)Nc1ccc(O)cc1 [acetaminophen] | typical zoon 3 hepatocyte death | renal tubular injury | significantly increased | significantly increased | significantly increased | Several hundred | spiked after 3 hours and decreased over a 24 hour period | spiked after 3 hours and decreased over a 24 hour period | increased to a lesser extent but held reasonably steady over a 24-hour period | – | – | – | – | – | – |
| Bantam: synthetic RNA UGAGAUCAUUGUGAAAGCUGAUU, Bantam miRNA from house fly (synthetic double-stranded RNA, chemistry not given here; listed as Musca domestica) | – | – | – | – | – | – | – | – | – | did not produce any significant effects | No enriched pathway | – | – | – | – |
| miR-263: exogenous miRNA AAUGGCACUGGAAGAAUUCACGG, miR-263a from mosquito; synthetic form transfected, native form measured in plasma (synthetic double-stranded RNA, chemistry not given here; listed as Culex pipiens) | – | – | – | – | – | – | – | – | – | did not produce any significant effects | No enriched pathway | reduced significantly | reduced significantly | reduced significantly | reduced significantly |
